Reference: paper PMC12591375 (British journal of pharmacology, 2022)
Marks after values point to notes of the source that are not given here.

Assays:
Format in all cases: cell-based
CB2 [1] = biological target: T1, CB2 (Homo sapiens, UniProt P34972, Q63R); assay: β-arrestin 2 translocation real-time BRET assay, wild-type CB2; conditions: HEK 293 cells
CB2 [2] = biological target: T1, CB2; assay: β-arrestin 1 translocation real-time BRET assay; conditions: for pEC50, β-arrestin 1 translocation to CB2: HEK 293 cells
CB2 [3] = biological target: T1, CB2; assay: β-arrestin 2 translocation real-time BRET assay, wild-type CB2; conditions: for pEC50, β-arrestin 2 translocation to CB2: HEK 293 cells
CB2 [4] = biological target: T1, CB2; assay: β-arrestin 1 translocation real-time BRET assay; conditions: HEK 293 cells

T1 sequence (P34972 whole entry Q63R): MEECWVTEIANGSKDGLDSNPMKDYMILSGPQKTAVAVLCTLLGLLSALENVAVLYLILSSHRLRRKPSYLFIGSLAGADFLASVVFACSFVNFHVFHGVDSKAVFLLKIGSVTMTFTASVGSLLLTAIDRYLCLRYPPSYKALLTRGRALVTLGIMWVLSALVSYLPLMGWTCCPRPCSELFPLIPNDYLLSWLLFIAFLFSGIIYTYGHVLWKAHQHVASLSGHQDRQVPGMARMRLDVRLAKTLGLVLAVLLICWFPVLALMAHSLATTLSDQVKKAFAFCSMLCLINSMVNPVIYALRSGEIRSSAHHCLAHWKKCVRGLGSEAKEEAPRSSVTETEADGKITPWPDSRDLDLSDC

In the case of `COC(=O)[C@@H](NC(=O)c1nn(Cc2ccc(F)cc2)c2ccccc12)C(C)C` [AMB-FUBINACA], the “Span, β-arrestin 2 translocation to CB2” value (CB2 [1]; coexpression of GRK1, Table 2) is reported as 134.2 (11.15) ΔBRET.s, the “Span, β-arrestin 2 translocation to CB2” value (CB2 [1]; coexpression of GRK2, Table 2) is reported as 123.2 (9.45) ΔBRET.s and the “Span, β-arrestin 2 translocation to CB2” value (CB2 [1]; coexpression of GRK3, Table 2) is reported as 119.0 (9.10) ΔBRET.s. The “Span, β-arrestin 2 translocation to CB2” value (CB2 [1]; coexpression of GRK4, Table 2) was 126.6 (9.03) ΔBRET.s, the “Span, β-arrestin 2 translocation to CB2” value (CB2 [1]; coexpression of GRK5, Table 2) was 114.6 (5.98) ΔBRET.s and the “Span, β-arrestin 2 translocation to CB2” value (CB2 [1]; coexpression of GRK6, Table 2) was 125.8 (10.37) ΔBRET.s. The “Span, β-arrestin 2 translocation to CB2” value (CB2 [1]; mock (no GRK), Table 2) was 123.9 (8.36) ΔBRET.s, the “pEC50, β-arrestin 1 translocation to CB2” value (CB2 [2]; coexpression of GRK1) was 7.97 (0.13) and the “pEC50, β-arrestin 1 translocation to CB2” value (CB2 [2]; coexpression of GRK2) was 8.16 (0.09). The “pEC50, β-arrestin 1 translocation to CB2” value (CB2 [2]; coexpression of GRK3) was 8.26 (0.07) ^*, the “pEC50, β-arrestin 1 translocation to CB2” value (CB2 [2]; coexpression of GRK4) was 7.98 (0.18) and the “pEC50, β-arrestin 1 translocation to CB2” value (CB2 [2]; coexpression of GRK5) was 7.97 (0.11). For the same compound, the “pEC50, β-arrestin 1 translocation to CB2” value (CB2 [2]; coexpression of GRK6) was 8.01 (0.18), the “pEC50, β-arrestin 1 translocation to CB2” value (CB2 [2]; mock (no GRK)) was 7.94 (0.10) and the “β-arrestin 1 translocation to CB2 (in words)” value (CB2 [2]; absence of exogenous GRKs) was “submaximal translocation”. For the same compound, the “pEC50, β-arrestin 2 translocation to CB2” value (CB2 [3]; coexpression of GRK1, Table 2) was 8.03 (0.06), the “pEC50, β-arrestin 2 translocation to CB2” value (CB2 [3]; coexpression of GRK2, Table 2) was 8.28 (0.05) ^* and the “pEC50, β-arrestin 2 translocation to CB2” value (CB2 [3]; coexpression of GRK3, Table 2) was 8.17 (0.11). The “pEC50, β-arrestin 2 translocation to CB2” value (CB2 [3]; coexpression of GRK4, Table 2) was 8.13 (0.03), the “pEC50, β-arrestin 2 translocation to CB2” value (CB2 [3]; coexpression of GRK5, Table 2) was 8.07 (0.07) and the “pEC50, β-arrestin 2 translocation to CB2” value (CB2 [3]; coexpression of GRK6, Table 2) was 8.12 (0.04). The “pEC50, β-arrestin 2 translocation to CB2” value (CB2 [3]; mock (no GRK), Table 2) was 8.15 (0.06), the “β-arrestin 2 translocation to CB2 (in words)” value (CB2 [3]; absence of exogenous GRKs) was “submaximal translocation” and the “Span, β-arrestin 1 translocation to CB2” value (CB2 [4]; coexpression of GRK1) was 47.12 (3.44) ^* ΔBRET.s. For the same compound, the “Span, β-arrestin 1 translocation to CB2” value (CB2 [4]; coexpression of GRK2) was 45.12 (2.90) ^* ΔBRET.s, the “Span, β-arrestin 1 translocation to CB2” value (CB2 [4]; coexpression of GRK3) was 46.69 (1.39) ^* ΔBRET.s and the “Span, β-arrestin 1 translocation to CB2” value (CB2 [4]; coexpression of GRK4) was 35.06 (2.32) ΔBRET.s. The “Span, β-arrestin 1 translocation to CB2” value (CB2 [4]; coexpression of GRK5) was 38.17 (1.55) ΔBRET.s, the “Span, β-arrestin 1 translocation to CB2” value (CB2 [4]; coexpression of GRK6) was 44.72 (3.21) ^* ΔBRET.s and the “Span, β-arrestin 1 translocation to CB2” value (CB2 [4]; mock (no GRK)) was 29.34 (2.43) ΔBRET.s.
